Where two headings read alike, the source gives them in different places.

In one assay the target is T1, TbINO1 (Trypanosoma brucei brucei, UniProt Q5QQ46).
T1 sequence (Q5QQ46 1-528): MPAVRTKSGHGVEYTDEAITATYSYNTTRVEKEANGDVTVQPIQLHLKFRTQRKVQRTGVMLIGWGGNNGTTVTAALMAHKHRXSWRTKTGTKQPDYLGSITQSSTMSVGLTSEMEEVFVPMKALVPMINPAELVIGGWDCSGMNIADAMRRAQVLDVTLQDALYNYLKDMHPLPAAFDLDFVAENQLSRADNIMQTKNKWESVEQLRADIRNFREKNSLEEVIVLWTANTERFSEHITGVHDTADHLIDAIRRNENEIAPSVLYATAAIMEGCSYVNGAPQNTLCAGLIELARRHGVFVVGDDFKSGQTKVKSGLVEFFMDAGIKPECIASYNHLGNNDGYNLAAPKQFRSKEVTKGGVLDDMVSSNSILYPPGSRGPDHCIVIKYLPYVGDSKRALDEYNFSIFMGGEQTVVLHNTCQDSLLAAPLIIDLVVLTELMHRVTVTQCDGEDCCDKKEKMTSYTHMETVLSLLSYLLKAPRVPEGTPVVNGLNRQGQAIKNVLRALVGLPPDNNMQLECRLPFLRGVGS
Description: biochemical. The class given is binding. To be noted: for Tb Ino1 Tm Shift [˚C]: Supplementary Table 1, compound 1mM, mean ± SD from Boltzman curve fitting.

The next assay has as its system A549 cells. Kind of assay: Cytotoxicity against A549 cells, Alamar Blue. The class given is cell-based. The following applies: Supplementary Table 1, compound 0.5 mM, percentage of controls (n=1); for viability at 500 µM: Homo sapiens, A549, 65 h. Summed up: (§1)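 Viability by Alamar Blue (5 h) after ~65 h drug treatment; seeding density 2 × 10^4 cells/well in DMEM supplemented with 10% FCS and 2 mM L-Glutamine.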
On the technique in general: Alamar Blue is a resazurin reagent that responds to reducing activity.

The test system of the next assay is HeLa cells. Kind of assay: cells. The following applies: for HeLa Cells Alamar Blue: Supplementary Table 1; for viability at 500 µM: 65 h. Summed up: as §1
[1] abbreviates: compound 0.5 mM, percentage of controls, mean ± SD (n=3) or SE (n=2).
The mark [2] stands for this setting: read-out: Tb Ino1 Tm Shift [˚C].
[3] abbreviates: Homo sapiens, HeLa, read-out: HeLa Cells Alamar Blue.
Setting [4] is: Homo sapiens, HeLa, read-out: HeLa Cells Alamar Blue (% survival).
The mark [5] stands for this setting: Homo sapiens, HeLa, read-out: HeLa Cells Alamar Blue, Supplementary Table 1, compound 0.5 mM, percentage of controls, mean ± SD (n=3) or SE (n=2).

Regarding `CC(=O)Oc1ccc(C)c2c1CCC2` [compound 541, 7‐methyl‐2,3‐dihydro‐1H‐inden‐4‐yl acetate], the “Tb Ino1 Tm Shift [˚C]” value on TbINO1 was found to be 0.01 ± 0.07 °C. In addition, the “A549 Cells Alamar Blue” value with A549 cells was 93.1 percentage of controls. Moreover, the “HeLa Cells Alamar Blue” value in the assay with HeLa cells (setting [1]) is recorded as 79.8 ± 6.6 percentage of controls.
Turning to `OCCc1c[nH]c2ccccc12` [compound 277, 2‐(1H‐indol‐3‐yl)ethan‐1‐ol], the ΔTm at 1000 µM at TbINO1 (setting [2]) came to 1.12 ± 0.06 °C. Also, the viability at 500 µM in the assay on A549 cells is 59.9%; in the assay on HeLa cells (setting [3]), 66.3 ± 1.7%.
The corresponding values for `O=C(O)c1cc2cccnc2s1` [compound 445, thieno[2,3‐b]pyridine‐2‐carboxylic acid] are 0.61 ± 0.08 °C, 45.2% and 88 ± 8.1%.
Take `OCc1ccc(-c2cccs2)s1` [compound 598, 2,2′-bithien-5-ylmethanol]: the ΔTm at 1000 µM at TbINO1 (read-out: TbIno1 Tm shift [°C]) came to 1.72 ± 0.06 °C. The values for the viability at 500 µM in the assay on A549 cells, with HeLa cells (setting [3]) and with HeLa cells (setting [4]) were 86.3%, 78 ± 11.6% and 78 ± 11.6%, respectively.
In the case of `Clc1ccc(Cl)s1` [compound 211, 2,5‐dichlorothiophene], the ΔTm at 1000 µM at TbINO1 (setting [2]) is 0.02 ± 0.08 °C. Also, the figures for the viability at 500 µM in the assay with A549 cells and in the assay with HeLa cells (setting [3]) were 117% and 99.6 ± 4.1%, respectively.
The corresponding values for `OC1CCC(C(F)(F)F)CC1` (centres unmarked) [compound 333, 4‐(trifluoromethyl)cyclohexan‐1‐ol] are 0.47 ± 0.04 °C, 114% and 110 ± 4.4%.
The corresponding values for `Cc1ccc(N)nc1` [compound 16, 5‐methylpyridin‐2‐amine] are 0.12 ± 0.06 °C, 89.4% and 101 ± 1.1%.
Take `CCC1CCC(N)CC1` (centres unmarked) [compound 84, 4‐ethylcyclohexanamine]: the ΔTm at 1000 µM at TbINO1 (setting [2]) amounted to 0.44 ± 0.06 °C. The viability at 500 µM in the assay on A549 cells amounted to 118%; in the assay with HeLa cells (setting [3]), 90.7 ± 14.2%.
For `O=C(O)C12CC3CC(CC(O)(C3)C1)C2` [compound 597, 3‐hydroxyadamantane‐1‐carboxylic acid], on TbINO1 (setting [2]), the ΔTm at 1000 µM turned out to be 0.29 ± 0.06 °C. The viability at 500 µM came out at 79.4% in the assay on A549 cells and 75.2 ± 12.6% with HeLa cells (setting [3]).
As to `Nc1cccc(CN2CCCC2)c1` [compound 415, 3‐(pyrrolidin‐1‐ylmethyl)aniline], the ΔTm at 1000 µM at TbINO1 (setting [2]) is 0.34 ± 0.06 °C. Further, the viability at 500 µM is 107% in the assay with A549 cells and 57.8 ± 4.5% in the assay on HeLa cells (setting [3]).
The corresponding values for `c1cncc(Cn2cccc2)c1` [compound 248, 3‐(1H‐pyrrol‐1‐ylmethyl)pyridine] are 0 °C, 86.6% and 91.3 ± 11.9%.
On the same counts, the results for `Cc1nc(N)ccc1C#N` [compound 102, 6‐amino‐2‐methylnicotinonitrile] are 0.27 ± 0.06 °C, 76.1% and 69.4 ± 12.4%.
As for `CC1=NNC(=O)CC1` [compound 31, 6‐methyl‐2,3,4,5‐tetrahydropyridazin‐3‐one], at TbINO1, the “Tb Ino1 Tm Shift [˚C]” value is 0.22 ± 0.07 °C. Further, the “A549 Cells Alamar Blue” value in the assay with A549 cells is reported as 68.2 percentage of controls. Further, the “HeLa Cells Alamar Blue” value in the assay with HeLa cells (setting [1]) was 85.4 ± 6.1 percentage of controls.
As to `O=C(O)c1cc2sccc2s1` [compound 479, thieno[3,2‐b]thiophene‐2‐carboxylic acid], the ΔTm at 1000 µM on TbINO1 (setting [2]) is 0.21 ± 0.07 °C. Also, the viability at 500 µM was determined as 102% in the assay with A549 cells and 109 ± 11.4% in the assay on HeLa cells (setting [3]).
On to `Cc1cc(O)nc2ccccc12` [compound 258, 4‐methyl‐2‐quinolinol], for which the ΔTm at 1000 µM on TbINO1 (setting [2]) worked out at 0.17 ± 0.06 °C. The viability at 500 µM with A549 cells was 90.7%; in the assay on HeLa cells (setting [3]), 92.7 ± 13.6%.
The corresponding values for `Cc1cccc(C(N)=O)c1C` [compound 176, 2,3‐dimethylbenzamide] are 0.06 ± 0.07 °C, 68.7% and 88.2 ± 12.4%.
`CCCc1nccs1` [compound 82, 2‐propyl‐1,3‐thiazole]: the ΔTm at 1000 µM at TbINO1 (setting [2]) came out at 0.22 ± 0.07 °C. In addition, the viability at 500 µM with A549 cells is 114%; in the assay with HeLa cells (setting [3]) it was 96.8 ± 11%.
The corresponding values for `CNCc1cccc(-c2ccncc2)c1` [compound 605, N‐methyl‐N‐(3‐pyridin‐4‐ylbenzyl)amine] are 0.05 ± 0.07 °C, 36.2% and 21.3 ± 13.8%.
On the same counts, the results for `N#Cc1ccc(OC2CCOCC2)cc1` [compound 645, 4‐(tetrahydropyran‐4‐yloxy)benzonitrile] are 0.18 ± 0.05 °C, 102% and 77.4 ± 15.8%.
Take `O=C(O)c1cc2sccc2[nH]1` [compound 328, 4H-thieno[3,2-b]pyrrole-5-carboxylic acid]: the ΔTm at 1000 µM on TbINO1 (read-out: TbIno1 Tm shift [°C]) was 2.29 ± 0.1 °C. The viability at 500 µM with A549 cells was 136%; in the assay with HeLa cells (Homo sapiens, HeLa, read-out: HeLa Cells Alamar Blue (% survival), compound 0.5 mM, percentage of controls), 106 ± 6.9%; with HeLa cells (setting [5]) it was 106 ± 6.9%.
On to `Cn1c(=O)cc(O)c2ccccc21` [compound 395, 4-hydroxy-1-methyl-1,2-dihydroquinolin-2-one], for which the ΔTm at 1000 µM at TbINO1 (read-out: TbIno1 Tm shift [°C]) worked out at 1.62 ± 0.03 °C. Moreover, the figures for the viability at 500 µM in the assay on A549 cells, with HeLa cells (setting [3]) and with HeLa cells (setting [4]) were 174%, 93 ± 0.3% and 93 ± 0.3%, respectively.
`N#CCCNCC1CCCO1` (centres unmarked) [compound 224, 3‐[(tetrahydrofuran‐2‐ylmethyl)amino]propanenitrile]: at TbINO1, the “Tb Ino1 Tm Shift [˚C]” value came out at 0.21 ± 0.09 °C. In addition, the “A549 Cells Alamar Blue” value in the assay with A549 cells is on record as 60 percentage of controls. Besides, in the assay with HeLa cells (setting [1]), the “HeLa Cells Alamar Blue” value is reported as 96.5 ± 13.7 percentage of controls.
For `CNCc1ccncc1` [compound 56, N‐methyl‐N‐(4‐pyridinylmethyl)amine], the ΔTm at 1000 µM at TbINO1 (setting [2]) stood at 0.01 ± 0.08 °C. For the same compound, the viability at 500 µM with A549 cells turned out to be 78.5%; in the assay on HeLa cells (setting [3]), 87.9 ± 9.9%.
The corresponding values for `Clc1ccc2nonc2c1` [compound 225, 5‐chloro‐2,1,3‐benzoxadiazole] are 0.81 ± 0.19 °C, 68.9% and 91.4 ± 15.1%.
For the compound `N#Cc1ccnc(N2CCSCC2)c1` [compound 668, 2‐thiomorpholinoisonicotinonitrile], the ΔTm at 1000 µM at TbINO1 (setting [2]) was determined as 1.06 ± 0.07 °C. Moreover, the viability at 500 µM was determined as 98.5% in the assay with A549 cells and 80.3 ± 19.6% with HeLa cells (setting [3]).
With `CC1CCN(CC(C)(C)N)CC1` [compound 349, 2‐methyl‐1‐(4‐methylpiperidino)‐2‐propanamine], at TbINO1, the “Tb Ino1 Tm Shift [˚C]” value was found to be 0.53 ± 0.06 °C. Besides, in the assay with A549 cells, the “A549 Cells Alamar Blue” value is on record as 144.1 percentage of controls. The “HeLa Cells Alamar Blue” value with HeLa cells (setting [1]) is 108.4 ± 7.2 percentage of controls.
With `CNCc1ccc(-c2ccccn2)cc1` [compound 607, N‐methyl‐N‐(4‐pyridin‐2‐ylbenzyl)amine], the ΔTm at 1000 µM on TbINO1 (setting [2]) amounted to 0.02 ± 0.06 °C. For the same compound, the viability at 500 µM was 71.5% in the assay on A549 cells and 57.7 ± 17.1% in the assay with HeLa cells (setting [3]).
On the same counts, the results for `Nc1cccc(C(=O)c2ccccc2)c1` [compound 601, (3‐aminophenyl)(phenyl)methanone] are 0.21 ± 0.06 °C, 63.8% and 89.2 ± 6.6%.
The corresponding values for `OCc1cccc(N2CCOCC2)c1` [compound 579, (3‐morpholinophenyl)methanol] are 0.18 ± 0.08 °C, 101% and 100 ± 13.5%.
As for `Oc1ccc(F)cc1` [compound 29, 4‐fluorophenol], at TbINO1 (setting [2]), the ΔTm at 1000 µM amounted to 0.23 ± 0.08 °C. The results for the viability at 500 µM in the assay on A549 cells and in the assay on HeLa cells (setting [5]) were 88.4% and 96.2 ± 7.7%, respectively.
On to `O=C(O)c1ccccc1-c1cccnc1` [compound 613, 2‐pyrid‐3‐ylbenzoic acid], for which, on TbINO1 (setting [2]), the ΔTm at 1000 µM came to 0.14 ± 0.07 °C. Further, the values for the viability at 500 µM in the assay on A549 cells and in the assay with HeLa cells (setting [3]) were 59.8% and 80 ± 5.6%, respectively.
Regarding `O=C1Cc2ccccc2N1` [compound 99, indolin-2-one], the ΔTm at 1000 µM on TbINO1 (read-out: TbIno1 Tm shift [°C]) is 2.04 ± 0.07 °C. Further, the viability at 500 µM amounted to 229% with A549 cells, 66.6 ± 18.7% in the assay with HeLa cells (setting [3]) and 66.6 ± 18.7% with HeLa cells (setting [4]). The CC50 in the assay on HeLa cells (Homo sapiens, HeLa, read-out: HeLa ED50) is over 2000 µM.
For `O=C(O)c1ccc2ncsc2c1` [compound 444, 1,3‐benzothiazole‐6‐carboxylic acid], the ΔTm at 1000 µM at TbINO1 (setting [2]) stood at 0.73 ± 0.06 °C. For the same compound, the viability at 500 µM in the assay on A549 cells amounted to 63.5%; in the assay on HeLa cells (setting [3]), 92 ± 9.7%.
Take `Nc1ccccc1-n1ccnc1` [compound 262, 2‐(1H‐imidazol‐1‐yl)aniline]: at TbINO1 (setting [2]), the ΔTm at 1000 µM was found to be 0.62 ± 0.08 °C. In addition, the viability at 500 µM was determined as 76% in the assay with A549 cells and 66.5 ± 16.1% in the assay with HeLa cells (setting [3]).
The corresponding values for `Cc1cc(O)cc(C)c1C#N` [compound 164, 4‐hydroxy‐2,6‐dimethylbenzonitrile] are 0.26 ± 0.08 °C, 90% and 55.8 ± 12.1%.

The record behind these values is paper PMC3199943, “Screening the MayBridge Rule of 3 Fragment Library for Compounds That Interact with the Trypanosoma brucei myo-Inositol-3-Phosphate Synthase and/or Show Trypanocidal Activity” (Molecular Biology International, 2011).
